In data set [1] the target is Histone-lysine N-methyltransferase SETD7 (Homo sapiens) (UniProt Q8WTS6). Description: Inhibition of human SET7/9 at 100 uM using core histone as substrate incubated for 1 hr in presence of [3H]-SAM by filter binding method relative to control.
Data set [2] has as its target DNA (cytosine-5)-methyltransferase 3A (Homo sapiens, UniProt Q9Y6K1). Description: Inhibition of human DNMT3a using lambda DNA as substrate incubated for 1 hr in presence of [3H]-SAM by filter binding method.
The species entered for data set [3] is Homo sapiens. Briefly: Selectivity ratio of IC50 for human HDAC8 to IC50 for human HDAC6.
For data set [4], the species on record is Homo sapiens. Description: Selectivity ratio of IC50 for human HDAC2 to IC50 for human HDAC6.
The species named for data set [5] is Homo sapiens. Description: Selectivity ratio of IC50 for human HDAC3 to IC50 for human HDAC6.
Data set [6] deals with Histone deacetylase 7 (Homo sapiens) (UniProt Q8WUI4). Description: Inhibition of human HDAC7 at 10 uM using Acetyl-Lys (trifluoroacetyl)-AMC) as substrate incubated for 2 hrs by fluorescence assay.
For data set [7], the target named is Histone deacetylase 4 (Homo sapiens) (UniProt P56524). Briefly: Inhibition of human HDAC4 at 10 uM using Acetyl-Lys (trifluoroacetyl)-AMC) as substrate incubated for 2 hrs by fluorescence assay relative to control.
Data set [8] concerns the target T1, Protein deacetylase HDAC6 (Homo sapiens, UniProt Q9UBN7).
T1 sequence (Q9UBN7 whole entry): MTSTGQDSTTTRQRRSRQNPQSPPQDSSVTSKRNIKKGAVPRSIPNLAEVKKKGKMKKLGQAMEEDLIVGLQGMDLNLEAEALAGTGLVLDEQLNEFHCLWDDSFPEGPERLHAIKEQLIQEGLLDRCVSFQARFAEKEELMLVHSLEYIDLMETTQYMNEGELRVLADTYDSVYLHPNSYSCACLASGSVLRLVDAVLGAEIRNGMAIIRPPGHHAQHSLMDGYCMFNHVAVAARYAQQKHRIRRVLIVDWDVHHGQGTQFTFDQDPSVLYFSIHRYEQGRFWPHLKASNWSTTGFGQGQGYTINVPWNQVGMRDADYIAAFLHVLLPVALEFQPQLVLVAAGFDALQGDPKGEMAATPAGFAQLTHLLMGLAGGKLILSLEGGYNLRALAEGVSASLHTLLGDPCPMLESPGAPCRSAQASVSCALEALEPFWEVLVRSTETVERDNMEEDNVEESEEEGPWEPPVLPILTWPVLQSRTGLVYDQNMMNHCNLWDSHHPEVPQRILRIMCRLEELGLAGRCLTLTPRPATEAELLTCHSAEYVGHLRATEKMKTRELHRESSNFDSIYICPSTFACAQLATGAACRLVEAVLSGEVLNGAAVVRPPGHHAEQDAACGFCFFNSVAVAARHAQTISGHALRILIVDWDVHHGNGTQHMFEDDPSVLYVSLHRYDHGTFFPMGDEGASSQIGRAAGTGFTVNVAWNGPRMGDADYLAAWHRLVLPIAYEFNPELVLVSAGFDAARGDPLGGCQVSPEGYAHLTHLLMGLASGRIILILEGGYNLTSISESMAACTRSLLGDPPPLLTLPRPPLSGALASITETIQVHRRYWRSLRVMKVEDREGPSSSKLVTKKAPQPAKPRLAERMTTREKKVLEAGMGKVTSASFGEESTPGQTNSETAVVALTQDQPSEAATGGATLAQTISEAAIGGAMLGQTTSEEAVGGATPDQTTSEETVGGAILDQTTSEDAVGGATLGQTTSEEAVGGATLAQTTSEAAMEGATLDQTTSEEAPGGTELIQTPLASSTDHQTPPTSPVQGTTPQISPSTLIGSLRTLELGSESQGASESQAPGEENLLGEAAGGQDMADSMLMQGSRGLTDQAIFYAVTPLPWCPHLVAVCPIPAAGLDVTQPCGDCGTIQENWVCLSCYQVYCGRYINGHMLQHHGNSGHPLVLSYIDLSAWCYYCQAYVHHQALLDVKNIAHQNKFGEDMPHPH
Briefly: Inhibition of human HDAC6 using Arg-His-Lys-Lys (Ac) as substrate incubated for 2 hrs by fluorescence assay.

The subject of data set [9] is MDA-MB-231. Description: Antiproliferative activity against human MDA-MB-231 cells incubated for 72 hrs by MTT assay. In kind it is functional, cell-based. Conditions: MDA-MB-231, 72 h. On the technique in general: Formazan colour is commonly taken as a measure of viable cells.
The subject of data set [10] is NCI-H929. Briefly: Antiproliferative activity against human NCI-H929 cells incubated for 48 hrs by CellTiter-Glo luminescent cell viability assay. In kind it is functional, cell-based. Conditions: NCI-H929, 48 h. Background: ATP-based viability assays read luminescence as a measure of living cells.
The test system of data set [11] is OPM-2. Briefly: Antiproliferative activity against human OPM2 cells incubated for 48 hrs by CellTiter-Glo luminescent cell viability assay. In kind it is functional, cell-based. To be noted: OPM-2, 48 h.
Data set [12] deals with MDA-MB-231. Briefly: Induction of apoptosis in human MDA-MB-231 cells assessed as early apoptotic cells at 3 uM incubated for 48 hrs by Annexin V-FITC/PI staining by flow cytometric analysis (reference value: 5%). In kind it is functional. (In flow cytometry, cells or beads pass a laser one at a time.)
The test system of data set [13] is MDA-MB-231. Description: Induction of apoptosis in human MDA-MB-231 cells assessed as necrotic cells at 3 uM incubated for 48 hrs by Annexin V-FITC/PI staining by flow cytometric analysis (reference value: 15%). In kind it is functional.
For data set [14], the system named is MDA-MB-231. Description: Induction of apoptosis in human MDA-MB-231 cells assessed as early apoptotic cells at 6 uM incubated for 48 hrs by Annexin V-FITC/PI staining by flow cytometric analysis (reference value: 5%). In kind it is functional.
Data set [15] concerns MDA-MB-231. Description: Induction of apoptosis in human MDA-MB-231 cells assessed as late apoptotic cells at 6 uM incubated for 48 hrs by Annexin V-FITC/PI staining by flow cytometric analysis (reference value: 3%). In kind it is functional.
The test system of data set [16] is KMS-12-BM. Briefly: Effect on human KMS-12-BM cells assessed as increase in cleaved PARP level at 10 uM incubated for 24 hrs by Western blot analysis. In kind it is functional, cell-based.
Data set [17] in a line: Kinetic solubility in pH 7.4 universal buffer measured after 3 hrs by UV spectroscopic analysis. In kind it is physicochemical. To be noted: read-out: Kinetic_solubility.
Data set [18] can be described thus: Genotoxicity in Salmonella typhimurium TA98 in presence of S9 fraction incubated for 48 hrs by Ames test relative to control. Conditions: salmonella enterica subsp. enterica serovar typhimurium, s9, 48 h. In kind it is toxicity, subcellular.
A short description of data set [19]: Half life in male rat liver microsomes at 3 uM preincubated for 5 mins followed by NADPH addition and measured up to 45 mins by LC-MS/MS analysis. In kind it is ADME, Microsome.
Data set [20] is described as follows: Intrinsic clearance in male rat liver microsomes at 3 uM preincubated for 5 mins followed by NADPH addition and measured up to 45 mins by LC-MS/MS analysis. In kind it is ADME, Microsome. To be noted: read-out: CLH.
Data set [21] deals with Plasmodium falciparum. Briefly: microbe, parasite or virus in culture. In kind it is functional, organism-based. Conditions: 3D7, 48 h.
Description: Antimalarial activity against ring stage Plasmodium falciparum 3D7 incubated for 48 hrs by Hoechst 33342 staining based fluorescence based assay
Data set [22] in a line: Inhibition of human MLL1 complex using core histone as substrate incubated for 1 hr in presence of [3H]-SAM by filter binding method.
Data set [23] has as its target Polyamine deacetylase HDAC10 (Homo sapiens, UniProt Q969S8). Description: Inhibition of human HDAC10 using Acetyl-Lys (trifluoroacetyl)-AMC) as substrate incubated for 2 hrs by fluorescence assay.
For data set [24], the target named is Histone deacetylase 11 (Homo sapiens, UniProt Q96DB2). Description: Inhibition of human HDAC11 using Acetyl-Lys (trifluoroacetyl)-AMC) as substrate incubated for 2 hrs by fluorescence assay.

From ChEMBL document CHEMBL4311997, “Discovery of a potent histone deacetylase (HDAC) 3/6 selective dual inhibitor” (Eur J Med Chem, 2019) come the findings set out here.

Converted amounts (≈) assume the structure as drawn. The source made the active and inactive calls. No cut-off for these calls is given here.

Chain of Histone-lysine N-methyltransferase SETD7 (Homo sapiens) (Q8WTS6 whole entry): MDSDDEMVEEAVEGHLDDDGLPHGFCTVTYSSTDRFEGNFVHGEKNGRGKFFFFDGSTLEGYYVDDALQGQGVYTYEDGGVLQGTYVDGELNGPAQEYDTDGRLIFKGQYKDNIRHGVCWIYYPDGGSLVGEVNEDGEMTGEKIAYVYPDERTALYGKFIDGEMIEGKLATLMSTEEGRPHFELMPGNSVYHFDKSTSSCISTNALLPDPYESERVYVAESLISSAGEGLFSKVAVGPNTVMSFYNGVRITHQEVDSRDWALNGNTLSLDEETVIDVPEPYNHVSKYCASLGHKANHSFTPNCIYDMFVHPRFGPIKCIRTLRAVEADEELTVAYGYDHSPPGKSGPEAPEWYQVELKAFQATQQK
Chain of DNA (cytosine-5)-methyltransferase 3A (Q9Y6K1 whole entry, looked up): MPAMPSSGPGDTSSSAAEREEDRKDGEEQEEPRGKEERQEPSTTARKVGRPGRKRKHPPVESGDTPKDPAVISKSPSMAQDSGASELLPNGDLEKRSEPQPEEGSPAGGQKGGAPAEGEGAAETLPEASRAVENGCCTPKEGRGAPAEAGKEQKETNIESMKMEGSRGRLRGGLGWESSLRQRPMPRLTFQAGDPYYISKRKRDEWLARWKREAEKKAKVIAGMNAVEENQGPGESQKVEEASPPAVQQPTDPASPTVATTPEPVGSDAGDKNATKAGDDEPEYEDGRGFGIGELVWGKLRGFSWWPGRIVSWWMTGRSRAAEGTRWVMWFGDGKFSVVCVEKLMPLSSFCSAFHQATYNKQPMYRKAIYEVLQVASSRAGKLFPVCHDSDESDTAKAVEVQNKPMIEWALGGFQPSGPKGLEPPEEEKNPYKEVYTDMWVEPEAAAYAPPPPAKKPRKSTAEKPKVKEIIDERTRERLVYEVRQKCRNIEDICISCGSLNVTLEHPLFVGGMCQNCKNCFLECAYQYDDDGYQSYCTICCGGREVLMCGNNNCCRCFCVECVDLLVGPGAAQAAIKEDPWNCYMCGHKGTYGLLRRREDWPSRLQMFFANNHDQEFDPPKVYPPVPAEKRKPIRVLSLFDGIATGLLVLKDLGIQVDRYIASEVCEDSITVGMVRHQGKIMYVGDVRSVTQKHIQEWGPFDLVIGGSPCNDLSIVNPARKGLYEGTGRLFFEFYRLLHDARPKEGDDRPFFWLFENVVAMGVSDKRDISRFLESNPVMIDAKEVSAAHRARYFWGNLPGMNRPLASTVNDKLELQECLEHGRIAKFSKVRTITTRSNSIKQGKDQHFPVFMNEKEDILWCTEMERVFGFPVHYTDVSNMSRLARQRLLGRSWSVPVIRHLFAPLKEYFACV
Chain of Histone deacetylase 4 (Homo sapiens) (P56524 whole entry): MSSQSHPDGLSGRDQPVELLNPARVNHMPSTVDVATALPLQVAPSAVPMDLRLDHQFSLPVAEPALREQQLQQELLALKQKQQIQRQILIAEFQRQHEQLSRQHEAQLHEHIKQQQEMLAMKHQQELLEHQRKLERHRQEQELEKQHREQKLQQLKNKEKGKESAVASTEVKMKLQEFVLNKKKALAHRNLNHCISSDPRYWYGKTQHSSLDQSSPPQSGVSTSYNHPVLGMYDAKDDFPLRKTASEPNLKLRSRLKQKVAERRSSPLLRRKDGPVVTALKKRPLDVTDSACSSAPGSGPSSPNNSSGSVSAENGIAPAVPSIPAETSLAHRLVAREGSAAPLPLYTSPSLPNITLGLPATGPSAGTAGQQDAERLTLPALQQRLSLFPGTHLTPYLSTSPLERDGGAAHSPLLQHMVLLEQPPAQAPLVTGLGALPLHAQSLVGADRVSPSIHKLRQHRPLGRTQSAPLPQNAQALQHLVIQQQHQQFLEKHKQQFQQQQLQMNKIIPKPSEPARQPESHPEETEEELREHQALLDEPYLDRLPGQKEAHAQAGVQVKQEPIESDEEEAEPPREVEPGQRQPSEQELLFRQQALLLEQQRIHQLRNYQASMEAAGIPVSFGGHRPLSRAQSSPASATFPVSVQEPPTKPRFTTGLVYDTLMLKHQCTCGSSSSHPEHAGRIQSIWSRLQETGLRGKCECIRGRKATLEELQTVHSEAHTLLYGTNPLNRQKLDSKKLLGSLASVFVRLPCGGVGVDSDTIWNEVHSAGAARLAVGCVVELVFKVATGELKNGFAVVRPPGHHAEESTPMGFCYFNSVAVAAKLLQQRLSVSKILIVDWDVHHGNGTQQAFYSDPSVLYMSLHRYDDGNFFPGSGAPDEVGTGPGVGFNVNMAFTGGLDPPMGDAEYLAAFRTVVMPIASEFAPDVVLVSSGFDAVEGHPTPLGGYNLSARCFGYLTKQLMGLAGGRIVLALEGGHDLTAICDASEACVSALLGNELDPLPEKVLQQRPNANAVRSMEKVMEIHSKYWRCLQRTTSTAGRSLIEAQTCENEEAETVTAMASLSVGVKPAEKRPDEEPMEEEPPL
Chain of Histone deacetylase 7 (Homo sapiens) (Q8WUI4 whole entry): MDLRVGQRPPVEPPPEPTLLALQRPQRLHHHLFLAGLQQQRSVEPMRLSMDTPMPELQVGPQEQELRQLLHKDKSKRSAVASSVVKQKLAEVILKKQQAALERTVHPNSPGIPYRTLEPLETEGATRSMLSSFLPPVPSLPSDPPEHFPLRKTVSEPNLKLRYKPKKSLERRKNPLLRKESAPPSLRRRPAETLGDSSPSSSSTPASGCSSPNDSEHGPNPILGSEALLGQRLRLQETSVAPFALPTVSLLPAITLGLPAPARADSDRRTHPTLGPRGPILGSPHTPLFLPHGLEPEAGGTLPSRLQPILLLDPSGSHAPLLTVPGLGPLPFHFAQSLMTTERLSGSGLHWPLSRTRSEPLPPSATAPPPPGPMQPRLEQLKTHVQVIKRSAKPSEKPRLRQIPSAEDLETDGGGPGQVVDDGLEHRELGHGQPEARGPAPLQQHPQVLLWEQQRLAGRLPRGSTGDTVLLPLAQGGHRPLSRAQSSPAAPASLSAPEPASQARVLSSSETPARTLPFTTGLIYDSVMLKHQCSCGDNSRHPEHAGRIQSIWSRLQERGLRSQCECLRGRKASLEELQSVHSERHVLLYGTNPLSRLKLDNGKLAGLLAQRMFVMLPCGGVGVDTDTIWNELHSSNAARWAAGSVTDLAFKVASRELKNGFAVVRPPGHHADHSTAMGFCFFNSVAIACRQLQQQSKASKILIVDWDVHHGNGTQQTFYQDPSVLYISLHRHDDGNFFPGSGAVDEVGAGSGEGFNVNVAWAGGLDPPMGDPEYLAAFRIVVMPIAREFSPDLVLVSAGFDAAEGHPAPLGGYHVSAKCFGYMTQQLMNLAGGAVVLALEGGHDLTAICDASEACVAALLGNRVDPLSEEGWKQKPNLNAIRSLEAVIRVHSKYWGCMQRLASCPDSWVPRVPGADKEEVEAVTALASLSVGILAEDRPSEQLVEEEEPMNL
Chain of Histone deacetylase 11 (Q96DB2 whole entry): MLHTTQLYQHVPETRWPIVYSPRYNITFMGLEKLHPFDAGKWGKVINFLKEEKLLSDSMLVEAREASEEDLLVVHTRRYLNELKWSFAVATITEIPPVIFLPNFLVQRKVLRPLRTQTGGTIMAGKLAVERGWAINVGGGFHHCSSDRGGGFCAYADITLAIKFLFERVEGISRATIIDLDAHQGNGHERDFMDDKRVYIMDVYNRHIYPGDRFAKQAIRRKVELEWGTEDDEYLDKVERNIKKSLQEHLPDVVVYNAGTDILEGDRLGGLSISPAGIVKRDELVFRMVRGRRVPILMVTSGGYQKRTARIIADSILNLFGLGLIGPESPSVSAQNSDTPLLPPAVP
Chain of Polyamine deacetylase HDAC10 (Q969S8 whole entry): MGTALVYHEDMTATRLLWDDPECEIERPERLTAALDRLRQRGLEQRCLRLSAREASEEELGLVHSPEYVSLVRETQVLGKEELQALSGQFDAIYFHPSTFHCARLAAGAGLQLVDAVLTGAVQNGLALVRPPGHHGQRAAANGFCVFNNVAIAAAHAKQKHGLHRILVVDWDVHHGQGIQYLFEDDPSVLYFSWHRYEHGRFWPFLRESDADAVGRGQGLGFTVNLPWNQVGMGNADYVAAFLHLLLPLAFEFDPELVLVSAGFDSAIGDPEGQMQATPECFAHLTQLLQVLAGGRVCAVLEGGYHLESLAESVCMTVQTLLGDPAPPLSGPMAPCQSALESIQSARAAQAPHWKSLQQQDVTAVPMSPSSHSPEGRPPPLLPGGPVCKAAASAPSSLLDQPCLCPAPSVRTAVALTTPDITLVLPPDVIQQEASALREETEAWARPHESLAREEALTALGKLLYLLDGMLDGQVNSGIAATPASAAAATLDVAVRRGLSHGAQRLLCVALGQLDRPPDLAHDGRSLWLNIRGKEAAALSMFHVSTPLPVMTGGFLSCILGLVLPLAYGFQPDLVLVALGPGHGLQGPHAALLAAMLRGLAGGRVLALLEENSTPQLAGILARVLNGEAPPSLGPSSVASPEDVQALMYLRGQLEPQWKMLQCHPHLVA

Usually inhibition stands for the relative decrease from the control value, in per cent. Broadly, the IC50 is the midpoint of a concentration-inhibition curve. Broadly, the EC50 is the concentration that produces a half-maximal response. For orientation: half-life means how long it takes for the measured level to halve. For the compound `COc1ccc(CN2CCC(Nc3nc(Nc4ccc(NC(=O)CCCCCCC(=O)NO)cc4)nc4cc(OC)c(OC)cc34)CC2)cc1`, the inhibition in [1] came out at 19%; in data set [7] it was 20%. In addition, the IC50 in [2] amounted to 74 µM; in data set [8], 0.00257 µM; in data set [21], 0.145 µM; in data set [23], 2.69 µM; in [24], 1.81 µM. Further, the Ratio IC50 in data set [3] came out at 485; in [4], 435; in [5], 13. Further, in [6], the inhibition entry is “inactive”. Also, the EC50 in data set [9] is 6.3 µM; in data set [10], 4.6 µM; in data set [11], 7.9 µM; in data set [22], 158 µM. In addition, the Activity in [12] is listed as 23%; in [13], 15%; in data set [14], 18%; in data set [15], 15%; in data set [18] it was “Non-Toxic”. The result in [16] was Active. Besides, in [17], the solubility kinetic at 3 h was 4.6 µM (≈ 3.15 µg/mL). This compound had a half-life at 3 µM in data set [19] of 2.38 h. The microsomal CLint at 3 µM in data set [20] turned out to be 16.3 µL/min/mg.
